Consider two compounds from patent US20240366560A1, “SMALL MOLECULE TREATMENT OF FATTY LIVER DISEASE AND HCC” (ScandiEdge Therapeutics AB, priority 2021, published 2024).

The subject of one series is PKLR. As to the kind of experiment: PKLR protein level by western blot in HepG2, 2-day drug treatment. It is filed as cell-based. The note with it: HepG2, two days of treatment, dosages per FIG. 5, P<0.05, FIG. 2A. The protocol:
WT HepG2 was included in this study and cultured by Roswell Park Memorial Institute (RPMI, […], Sigma Aldrich) 1640 Medium with 10% fetal bovine serum (FBS) and 1% penicillin-streptomycin (PS). To induce a steatosis model into WT HepG2 cells, high glucose Dulbecco's Modified Eagle Media (DMEM, […]/[…], Sigma-Aldrich) containing 10% FBS and 1% PS was used as medium for one week, together with 10 μg/mL insulin and 10 μM T0901317. All of cells were incubated in the incubator with 5% CO2 and 37° C. (Thermo […]). Fresh medium was provided every two days. As for drug-screening, different numbers of HepG2 cells were seeded for distinct experiments. More in details, 40,000 cells and 500,000 cells were used for 2-day-drug treatment in 96-well-plate and 6-well plate, respectively, while 80,000 cells and 300,000 cells were used for one-week drug treatment in 96-well plate and 6-well plate, respectively. […] Fresh medium was provided every two days. Protein content levels were detected by western blot. After the respective treatment of drugs, the cell pellets were lysed in cell lytic M, followed by protein extraction from supernatant (10 min, 13,000r/min centrifuge). Extracted cell lysate was stored in -20° C. Proteins were quantified through Bovine albumin serum (BAS) standard curve with protein assay dye reagent (BIO-RAD). The proteins were separated by SDS-PAGE with 100v in 90 min by mini-protein TGX precast gels (4-15%, 15 wells, 15 μl/well, BIO-RAD), and then transfer to Mini PVDF transfer package through transfer system (Transfer-Turbo, BIO-RAD). After 30 min blocking with 5% skim milk in cold room (4° C.) and washing with TBST, membrane was cut by the size of interested proteins. Primary antibodies were added into the corresponding membrane sections for overnight binding. Then the membranes were washed with TBST, and the secondary antibodies were incubated for 1 h in cold room. The following antibody were used: (Goat pAb to Rb lg, ab205718, abcam; Rb pAb to beta-actin, ab8227, abcam; […]; Rb pAb to fatty acid synthase, ab99539, abcam). The bindings were imaged by immunostaining and machine (ImageQuant LAS 500). All antibodies were purchased from Abcam online, and βactin was used as global normalized protein. After measurement, the strength of signal for each protein was quantified by ImageJ. The background noise was removed, and all results were normalized by the levels of β-actin. To determine the inhibitory effects of these drugs on the expression level of PKLR, HepG2 was selected as the in vitro model for coherence. […] HepG2 cells were treated with these drugs for two days with different dosages due to their potential cellular toxicities (FIG. 5), and the PKLR protein level was the measured by western blotting. The level of protein expression of PKLR of the drug-treated groups was compared to that of the Ctrl group after normalizing with β-actin.
(In general: A western blot detects proteins with antibodies after separation by electrophoresis.)

In series [1] the test system is Sprague Dawley male rats. As to the kind of experiment: In vivo biosafety study: micronucleus frequencies (MNPCEs) in blood. Also noted: species or system rat. The note with it: 30 mg/kg oral, 7 days, CHOW, p>0.05. As to the method: (§1) In vivo biosafety studies. Healthy Sprague Dawley male rats (12 weeks old, 250-280 g) were obtained from Atatürk University Experimental Research Center (ATADEM, Erzurum Turkey) and housed under standard environmental conditions (temperature 20° C.-25° C., humidity 50±20% and 12-hour light/dark diurnal cycle). Food and water were available ad libitum. Rats were randomly separated into one control group and two experimental groups (30 mg/kg/day BX-912 or JNK-IN-5A, n=5). BX-912 and JNK-IN-5A were dissolved in DMSO and orally administrated using oral gavage for 7 days. The control group were received the same amount of vehicle solution only.
(§2) After 7 days, rats were anaesthetized, and blood samples were collected from the abdominal aorta for biochemical and haematological analysis. The plasma was separated and stored at −80° C. for further analysis. Major organs such as heart, kidney, liver, muscle, adipose, intestine (duodenum, ileum, jejunum), pancreas, colon, and stomach were collected from all the animals for further analysis. Selected organs were fixed in 10% neutral buffered formalin for histopathological examination.
To evaluate the potential toxicity of BX-912 and JNK-IN-5A in animals, three groups of 12-week-old rats (n=5) were raised. The first group was fed with CHOW (Ctrl) for seven days. The second group was fed with CHOW plus BX-912 (30 mg/kg) for seven days. […]

For series [2], the system named is Sprague Dawley male rats. As to the kind of experiment: In vivo biosafety study: histopathological examination of major organs. The conditions noted are these: 30 mg/kg oral, 7 days, CHOW. Also noted: species or system rat. As to the method:
as §1, §2
Histopathological examination. The liver tissues were fixed in 10% buffered formaldehyde solution. After fixation, the tissues were passed through graded alcohol and xylene series and embedded in paraffin blocks. 5 micrometer thick sections were taken serially from the paraffin blocks. Histopathological changes were evaluated by performing hematoxylin eosin staining on the sections taken. Sections were evaluated according to histopathological findings as none (−), mild (+), moderate (++) and severe (+++).
To evaluate the potential toxicity of BX-912 and JNK-IN-5A in animals, three groups of 12-week-old rats (n=5) were raised. The first group was fed with CHOW (Ctrl) for seven days. The second group was fed with CHOW plus BX-912 (30 mg/kg) for seven days. The third group was fed with CHOW plus JNK-IN-5A (30 mg/kg) for seven days. After the seven days, all rats were sacrificed, and tissue samples from major organs and blood samples were collected for biosafety evaluation.

Consider `O=C(Nc1cccc(Nc2ncc(Br)c(NCCc3cnc[nH]3)n2)c1)N1CCCC1` [BX-912, N-[3-[[5-bromo-4-[[2-(1H-imidazol-5-yl)ethyl]amino]-2-pyrimidinyl]amino]phenyl]-1-pyrrolidinecarboxamide], for which the “protein expression of PKLR vs Ctrl, normalized with β-actin” value in the series on PKLR was “significantly down-regulated”. In the series on Sprague Dawley male rats [1], the “frequencies of MNPCEs compared to Ctrl animals” value is listed as “not statistically different”. In the series with Sprague Dawley male rats [2], the “histological structure of kidney, small intestine, large intestine, stomach, heart, pancreas, muscle tissues and liver” value is on record as “normal histological structures”; the “side effects on the rats (overall conclusion)” value is listed as “no side effects”.
The like results for `N#Cc1c(NC(=O)c2cccc3ccccc23)sc2c1CCCC2` [JNK-IN-5A, N-(3-cyano-4,5,6,7-tetrahydrobenzo [b]thien-2-yl)-1-naphthalenecarboxamide] were, in that order, “significantly down-regulated”, “not statistically different”, “normal histological structures” and “no side effects”.
